Data taken from patent US11401555B2, “Genetic polymorphisms associated with stroke, methods of detection and uses thereof” (CELERA CORPORATION, priority 2008, dated 2022).

What was measured:
[1] = Stroke statin response (SSR) in the CARE pravastatin trial: pravastatin-treated versus placebo-treated, by SNP genotype; format: in vivo, human; details: for EVENTS: stroke events in pravastatin arm
[2] = Stroke statin response (SSR) in the PROSPER pravastatin trial: pravastatin-treated versus placebo-treated, by SNP genotype; format: in vivo, human

CC[C@H](C)C(=O)O[C@H]1C[C@H](O)C=C2C=C[C@H](C)[C@H](CC[C@@H](O)C[C@@H](O)CC(=O)O)[C@H]21 [pravastatin]
EVENTS ([1]; CARE, rs3213646 EXOD1, GEN, genotype CC, TOTAL 417): 27 | EVENTS ([1]; CARE, rs3213646 EXOD1, GEN, genotype CT, TOTAL 691): 24 | EVENTS ([1]; CARE, rs3213646 EXOD1, GEN, genotype TT, TOTAL 245): 13 | EVENTS ([1]; CARE, rs3213646 EXOD1, REC, genotype CT + TT, TOTAL 936): 37 | EVENTS ([1]; CARE, rs3900940 MYH15, DOM, genotype CT + CC, TOTAL 721): 36 | EVENTS ([1]; CARE, rs3900940 MYH15, GEN, genotype CC, TOTAL 160): 13 | EVENTS ([1]; CARE, rs3900940 MYH15, GEN, genotype CT, TOTAL 561): 23 | EVENTS ([1]; CARE, rs3900940 MYH15, GEN, genotype TT, TOTAL 620): 30 | EVENTS ([1]; CARE, rs3900940 MYH15, REC, genotype CT + TT, TOTAL 1181): 53 | HR ([1]; pravastatin vs placebo, ENDPT4F1, hCV1463226 rs10890 FXN, GEN, genotype CC): 0.48 | HR ([1]; pravastatin vs placebo, ENDPT4F1, hCV1463226 rs10890 FXN, GEN, genotype TT): 0.41 | HR ([1]; pravastatin vs placebo, ENDPT4F1, hCV1846459 rs4803759, GEN, genotype CC): 0.66 | HR ([1]; pravastatin vs placebo, ENDPT4F1, hCV1846459 rs4803759, GEN, genotype TC): 0.62 | HR ([1]; pravastatin vs placebo, ENDPT4F1, hCV1846459 rs4803759, REC, genotype TC + CC): 0.64 | HR ([1]; pravastatin vs placebo, ENDPT4F1, hCV2442143 rs12544854 ASAH1, DOM, genotype TC + TT, first listing (TOTAL 1070)): 0.57 | HR ([1]; pravastatin vs placebo, ENDPT4F1, hCV2442143 rs12544854 ASAH1, DOM, genotype TC + TT, second listing (TOTAL 1059)): 0.56 | HR ([1]; pravastatin vs placebo, ENDPT4F1, hCV2442143 rs12544854 ASAH1, GEN, genotype TC, first listing (TOTAL 713)): 0.55 | HR ([1]; pravastatin vs placebo, ENDPT4F1, hCV2442143 rs12544854 ASAH1, GEN, genotype TC, second listing (TOTAL 704)): 0.57 | HR ([1]; pravastatin vs placebo, ENDPT4F1, hCV2741051 rs2230806 ABCA1, DOM, genotype TC + TT, first listing (TOTAL 709)): 0.47 | HR ([1]; pravastatin vs placebo, ENDPT4F1, hCV2741051 rs2230806 ABCA1, DOM, genotype TC + TT, second listing (TOTAL 711)): 0.47 | HR ([1]; pravastatin vs placebo, ENDPT4F1, hCV2741051 rs2230806 ABCA1, GEN, genotype TC, first listing (TOTAL 597)): 0.47 | HR ([1]; pravastatin vs placebo, ENDPT4F1, hCV2741051 rs2230806 ABCA1, GEN, genotype TC, second listing (TOTAL 603)): 0.5 | HR ([1]; pravastatin vs placebo, ENDPT4F1, hCV2862873 rs780094 GCKR, DOM, genotype TC + TT): 0.6 | HR ([1]; pravastatin vs placebo, ENDPT4F1, hCV2959482 rs3890182 ABCA1, DOM, genotype AG + AA): 0.34 | HR ([1]; pravastatin vs placebo, ENDPT4F1, hCV2959482 rs3890182 ABCA1, GEN, genotype AG): 0.34 | HR ([1]; pravastatin vs placebo, ENDPT4F1, hCV3216551 rs562338, GEN, genotype GG): 0.59 | HR ([1]; pravastatin vs placebo, ENDPT4F1, hCV8757333 rs1800588 LIPC, DOM, genotype TC + TT): 0.49 | HR ([1]; pravastatin vs placebo, ENDPT4F1, hCV8942032 rs1264352 DDR1, DOM, genotype CG + CC, risk allele C): 0.41 | HR ([1]; pravastatin vs placebo, ENDPT4F1, hCV9296529 rs4358307, GEN, genotype GA): 0.5 | HR ([1]; pravastatin vs placebo, ENDPT4F1, hCV9324316 rs9305020, GEN, genotype TT): 0.7 | HR ([1]; pravastatin vs placebo, ENDPT4F1, hCV9324316 rs9305020, REC, genotype CT + TT): 0.76 | HR ([1]; pravastatin vs placebo, ENDPT4F1, hCV9473891 rs1555173, REC, genotype CT + TT): 0.75 | HR ([1]; pravastatin vs placebo, ENDPT4F1, hCV16164743 rs2928932, GEN, genotype AA): 0.6 | HR ([1]; pravastatin vs placebo, ENDPT4F1, hCV16164743 rs2928932, GEN, genotype CC): 0.31 | HR ([1]; pravastatin vs placebo, ENDPT4F1, hCV22275299 rs28927680 BUD13, GEN, genotype GC): 0.2 | HR ([1]; pravastatin vs placebo, ENDPT4F1, hCV26682080 rs4420638, DOM, genotype GA + GG): 0.45 | HR ([1]; pravastatin vs placebo, ENDPT4F1, hCV26682080 rs4420638, GEN, genotype GA): 0.5 | HR ([1]; pravastatin vs placebo, ENDPT4F1, hCV26682080 rs4420638, GEN, genotype GG): 0.25 | HR ([1]; pravastatin vs placebo, ENDPT4F1, hCV29480044 rs10516433 TSPAN5, GEN, genotype TC): 0.46 | HR ([1]; pravastatin vs placebo, ENDPT4F1, hCV29480044 rs10516433 TSPAN5, REC, genotype TC + CC): 0.67 | HR ([1]; pravastatin vs placebo, ENDPT4F1, hCV29566897 rs10507755, REC, genotype CT + TT): 0.76 | HR ([1]; pravastatin vs placebo, ENDPT4F1, hCV30454150 rs10516434 TSPAN5, GEN, genotype TC): 0.46 | HR ([1]; pravastatin vs placebo, ENDPT4F1, hCV30454150 rs10516434 TSPAN5, REC, genotype TC + CC): 0.67 | HR ([1]; pravastatin vs placebo, ENDPT4F1, hDV77718013, REC, genotype TC + CC): 0.74 | HR ([1]; rs1048621 (hCV1619596, SDCBP2), ALL, genotype AA, MODE GEN, ENDPT4F1, pravastatin vs placebo, CARE): 0.16 | HR ([1]; rs1048621 (hCV1619596, SDCBP2), ALL, genotype AG + AA, MODE DOM, ENDPT4F1, pravastatin vs placebo, CARE): 0.69 | HR ([1]; rs1048621 (hCV1619596, SDCBP2), ALL, genotype AG + GG, MODE REC, ENDPT4F1, pravastatin vs placebo, CARE): 0.82 | HR ([1]; rs1048621 (hCV1619596, SDCBP2), ALL, genotype AG, MODE GEN, ENDPT4F1, pravastatin vs placebo, CARE): 0.89 | HR ([1]; rs1048621 (hCV1619596, SDCBP2), ALL, genotype GG, MODE GEN, ENDPT4F1, pravastatin vs placebo, CARE): 0.77 | HR ([1]; rs1264352 (hCV8942032, DDR1), genotype CC, MODE GEN, ENDPT4F1, pravastatin vs placebo, CARE): 0.86 | HR ([1]; rs1264352 (hCV8942032, DDR1), genotype CG + CC, MODE DOM, ENDPT4F1, pravastatin vs placebo, CARE): 0.41 | HR ([1]; rs1264352 (hCV8942032, DDR1), genotype CG + GG, MODE REC, ENDPT4F1, pravastatin vs placebo, CARE): 0.73 | HR ([1]; rs1264352 (hCV8942032, DDR1), genotype CG, MODE GEN, ENDPT4F1, pravastatin vs placebo, CARE): 0.39 | HR ([1]; rs1264352 (hCV8942032, DDR1), genotype GG, MODE GEN, ENDPT4F1, pravastatin vs placebo, CARE): 0.84 | HR ([1]; rs2857595 (hCV16134786), ALL, genotype AA, MODE GEN, ENDPT4F1, pravastatin vs placebo, CARE): 0.23 | HR ([1]; rs2857595 (hCV16134786), ALL, genotype AG + AA, MODE DOM, ENDPT4F1, pravastatin vs placebo, CARE): 0.58 | HR ([1]; rs2857595 (hCV16134786), ALL, genotype AG + GG, MODE REC, ENDPT4F1, pravastatin vs placebo, CARE): 0.77 | HR ([1]; rs2857595 (hCV16134786), ALL, genotype AG, MODE GEN, ENDPT4F1, pravastatin vs placebo, CARE): 0.67 | HR ([1]; rs2857595 (hCV16134786), ALL, genotype GG, MODE GEN, ENDPT4F1, pravastatin vs placebo, CARE): 0.8 | HR ([1]; rs11079160 (hCV32160712), ALL, genotype AA, MODE GEN, ENDPT4F1, pravastatin vs placebo, CARE): 0.86 | HR ([1]; rs11079160 (hCV32160712), ALL, genotype TA + AA, MODE REC, ENDPT4F1, pravastatin vs placebo, CARE): 0.78 | HR ([1]; rs11079160 (hCV32160712), ALL, genotype TA + TT, MODE DOM, ENDPT4F1, pravastatin vs placebo, CARE): 0.55 | HR ([1]; rs11079160 (hCV32160712), ALL, genotype TA, MODE GEN, ENDPT4F1, pravastatin vs placebo, CARE): 0.62 | HR ([1]; rs11079160 (hCV32160712), ALL, genotype TT, MODE GEN, ENDPT4F1, pravastatin vs placebo, CARE): 0.24 | HR ([1]; rs12762303 (hCV27830265, ALOX5), genotype AA, MODE GEN, ENDPT4F1, pravastatin vs placebo, CARE, first listing (TOTAL 1005)): 0.84 | HR ([1]; rs12762303 (hCV27830265, ALOX5), genotype AA, MODE GEN, ENDPT4F1, pravastatin vs placebo, CARE, second listing (TOTAL 1002)): 0.85 | HR ([1]; rs12762303 (hCV27830265, ALOX5), genotype GA + AA, MODE REC, ENDPT4F1, pravastatin vs placebo, CARE, first listing (TOTAL 1381)): 0.73 | HR ([1]; rs12762303 (hCV27830265, ALOX5), genotype GA + AA, MODE REC, ENDPT4F1, pravastatin vs placebo, CARE, second listing (TOTAL 1377)): 0.73 | HR ([1]; rs12762303 (hCV27830265, ALOX5), genotype GA + GG, MODE DOM, ENDPT4F1, pravastatin vs placebo, CARE, first listing (TOTAL 399)): 0.46 | HR ([1]; rs12762303 (hCV27830265, ALOX5), genotype GA + GG, MODE DOM, ENDPT4F1, pravastatin vs placebo, CARE, second listing (TOTAL 398)): 0.46 | HR ([1]; rs12762303 (hCV27830265, ALOX5), genotype GA, MODE GEN, ENDPT4F1, pravastatin vs placebo, CARE, first listing (TOTAL 376)): 0.47 | HR ([1]; rs12762303 (hCV27830265, ALOX5), genotype GA, MODE GEN, ENDPT4F1, pravastatin vs placebo, CARE, second listing (TOTAL 375)): 0.47 | HR ([1]; rs12762303 (hCV27830265, ALOX5), genotype GG, MODE GEN, ENDPT4F1, pravastatin vs placebo, CARE, first listing (TOTAL 23)): 0 | HR ([1]; rs12762303 (hCV27830265, ALOX5), genotype GG, MODE GEN, ENDPT4F1, pravastatin vs placebo, CARE, second listing (TOTAL 23)): 0 | HR_RESP (hazard ratio, pravastatin-treated versus placebo-treated) ([2]; hCV2091644 rs1010 VAMP8, GENO_RESP CC + CT, MODE DOM, STRATA no hist): 0.786 | HR_RESP (hazard ratio, pravastatin-treated versus placebo-treated) ([2]; hCV2169762 rs1804689 HPS1, GENO_RESP GG + GT, MODE REC, STRATA hist): 1.028 | HR_RESP (hazard ratio, pravastatin-treated versus placebo-treated) ([2]; hCV2169762 rs1804689 HPS1, GENO_RESP TT + GT, MODE DOM, STRATA no hist): 1.266 | EVENTS_RESP ([2]; hCV2169762 rs1804689 HPS1, GENO_RESP TT, MODE GEN, STRATA hist): 5 | HR_RESP (hazard ratio, pravastatin-treated versus placebo-treated) ([2]; hCV29539757 rs10110659 KCNQ3, GENO_RESP CC + AC, MODE REC, STRATA hist): 1.009
